How the values were obtained:
[1] = DRUGMATRIX: Phorbol Ester radioligand binding (ligand: [3H] PDBu); format: cell membranes, Mus musculus, ICR, Brain, Membrane; conditions: Not Active = under 50% inhibition at 10 µM
[2] = DRUGMATRIX: Nicotinic Acetylcholine radioligand binding (ligand: [125I] Epibatidine); format: cell membranes, Membrane; conditions: imr-32; Not Active = under 50% inhibition at 10 µM
Vasopressin V1a receptor = Vasopressin V1a receptor (Homo sapiens, UniProt P37288); format: cell membranes, Membrane; conditions: hek293; also: in other assays of this panel Not Active means under 50% inhibition at 10 µM
Vasopressin V1a receptor, sequence (P37288 whole entry): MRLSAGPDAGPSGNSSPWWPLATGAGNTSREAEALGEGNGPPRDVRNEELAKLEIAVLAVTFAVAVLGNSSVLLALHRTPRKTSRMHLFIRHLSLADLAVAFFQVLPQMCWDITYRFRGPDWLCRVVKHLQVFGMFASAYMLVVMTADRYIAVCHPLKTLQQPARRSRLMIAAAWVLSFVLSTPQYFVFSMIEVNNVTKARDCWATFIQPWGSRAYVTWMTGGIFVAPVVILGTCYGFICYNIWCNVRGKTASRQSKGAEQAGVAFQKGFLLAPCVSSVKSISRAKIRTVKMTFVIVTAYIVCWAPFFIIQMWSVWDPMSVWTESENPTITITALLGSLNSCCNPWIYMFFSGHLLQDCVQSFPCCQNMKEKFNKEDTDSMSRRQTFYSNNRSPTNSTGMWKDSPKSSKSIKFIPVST

Cytochrome P450 1A2 = biological target: T1, Cytochrome P450 1A2 (Homo sapiens, UniProt P05177); conditions: bti-tn-5b1-4; also: in other assays of this panel Not Active means under 50% inhibition at 10 µM
T1 sequence (P05177 whole entry): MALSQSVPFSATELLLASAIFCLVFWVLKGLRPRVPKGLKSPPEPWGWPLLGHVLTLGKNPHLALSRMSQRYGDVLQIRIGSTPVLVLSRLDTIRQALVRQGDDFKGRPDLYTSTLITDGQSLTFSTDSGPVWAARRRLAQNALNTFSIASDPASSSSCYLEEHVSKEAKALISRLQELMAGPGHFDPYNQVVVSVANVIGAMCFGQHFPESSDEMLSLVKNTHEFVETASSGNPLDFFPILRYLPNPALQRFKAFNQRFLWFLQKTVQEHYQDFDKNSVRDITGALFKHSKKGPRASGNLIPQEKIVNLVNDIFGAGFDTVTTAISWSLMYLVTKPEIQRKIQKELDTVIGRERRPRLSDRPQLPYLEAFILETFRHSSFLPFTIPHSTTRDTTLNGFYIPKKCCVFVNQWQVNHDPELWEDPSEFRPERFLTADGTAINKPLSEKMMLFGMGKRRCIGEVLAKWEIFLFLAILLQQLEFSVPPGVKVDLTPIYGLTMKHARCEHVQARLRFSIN

Acetylcholinesterase = Acetylcholinesterase (Homo sapiens, UniProt P22303); assay: DRUGMATRIX: Acetylcholinesterase enzyme inhibition (substrate: acetylthiocholine); format: cell-based, HEK293; conditions: hek293; Not Active = under 50% inhibition at 10 µM
Acetylcholinesterase, sequence (P22303 whole entry): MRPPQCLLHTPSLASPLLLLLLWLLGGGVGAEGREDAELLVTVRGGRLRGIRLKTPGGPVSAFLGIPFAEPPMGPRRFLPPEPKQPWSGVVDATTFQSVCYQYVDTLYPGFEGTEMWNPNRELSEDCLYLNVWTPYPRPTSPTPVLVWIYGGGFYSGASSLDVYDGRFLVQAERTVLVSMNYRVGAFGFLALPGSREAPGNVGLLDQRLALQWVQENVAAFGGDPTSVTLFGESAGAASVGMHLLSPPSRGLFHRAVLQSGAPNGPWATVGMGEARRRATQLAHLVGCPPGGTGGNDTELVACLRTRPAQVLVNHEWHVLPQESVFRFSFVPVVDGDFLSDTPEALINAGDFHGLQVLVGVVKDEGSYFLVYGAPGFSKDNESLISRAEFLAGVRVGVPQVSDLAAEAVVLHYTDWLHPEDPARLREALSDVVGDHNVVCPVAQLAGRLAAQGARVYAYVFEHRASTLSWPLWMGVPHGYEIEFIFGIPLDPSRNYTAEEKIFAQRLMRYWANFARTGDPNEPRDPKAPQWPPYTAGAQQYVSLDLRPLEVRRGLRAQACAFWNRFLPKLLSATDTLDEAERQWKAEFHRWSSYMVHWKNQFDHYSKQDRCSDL

Estrogen receptor = biological target: T2, Estrogen receptor (Homo sapiens, UniProt P03372); conditions: sf9; also: in other assays of this panel Not Active means under 50% inhibition at 10 µM
T2 sequence (P03372 whole entry): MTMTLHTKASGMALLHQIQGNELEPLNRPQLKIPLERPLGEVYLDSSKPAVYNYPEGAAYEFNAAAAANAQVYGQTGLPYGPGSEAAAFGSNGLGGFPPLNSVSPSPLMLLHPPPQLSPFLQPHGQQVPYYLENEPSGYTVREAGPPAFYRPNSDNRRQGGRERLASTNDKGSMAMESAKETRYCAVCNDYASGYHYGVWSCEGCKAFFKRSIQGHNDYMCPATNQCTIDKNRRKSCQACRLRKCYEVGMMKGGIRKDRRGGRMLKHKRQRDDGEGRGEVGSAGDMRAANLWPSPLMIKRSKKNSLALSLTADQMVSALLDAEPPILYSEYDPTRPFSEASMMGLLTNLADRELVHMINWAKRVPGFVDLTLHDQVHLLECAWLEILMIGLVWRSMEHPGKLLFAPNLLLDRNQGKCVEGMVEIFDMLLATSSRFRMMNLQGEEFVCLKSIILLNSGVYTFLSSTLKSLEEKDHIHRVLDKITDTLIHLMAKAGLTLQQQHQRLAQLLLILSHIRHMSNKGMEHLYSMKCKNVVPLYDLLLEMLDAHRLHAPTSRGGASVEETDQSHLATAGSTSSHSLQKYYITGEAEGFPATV

[3] = DRUGMATRIX: ATPase, Na+/K+ enzyme inhibition (substrate: ATP); format: tissue-based, Sus scrofa, Heart; conditions: Not Active = under 50% inhibition at 10 µM
[4] = DRUGMATRIX: Glutamate, NMDA, Phencyclidine radioligand binding (ligand: [3H] TCP); format: cell membranes, Rattus norvegicus, Wistar, Cerebral cortex, Membrane; conditions: Not Active = under 50% inhibition at 10 µM
Adenosine receptor A1 = biological target: T3, Adenosine receptor A1 (Homo sapiens, UniProt P30542); format: cell membranes, CHO, Membrane; conditions: cho;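 also: radioligand binding assay at the adenosine A1 receptor, with DPCPX serving as the labelled ligand; in other assays of this panel Not Active means under 50% inhibition at 10 µM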
T3 sequence (P30542 whole entry): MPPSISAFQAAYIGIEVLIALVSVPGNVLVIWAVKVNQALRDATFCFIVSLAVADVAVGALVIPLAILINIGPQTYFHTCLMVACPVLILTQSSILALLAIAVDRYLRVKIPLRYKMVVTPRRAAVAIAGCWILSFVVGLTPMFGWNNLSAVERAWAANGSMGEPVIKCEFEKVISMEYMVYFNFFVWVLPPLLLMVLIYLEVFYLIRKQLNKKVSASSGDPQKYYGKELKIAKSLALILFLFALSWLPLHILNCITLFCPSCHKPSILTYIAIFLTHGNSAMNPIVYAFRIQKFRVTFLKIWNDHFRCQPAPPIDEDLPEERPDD

Nc1nc2c(ncn2CCC(CO)CO)c(=O)[nH]1 [PENCICLOVIR]
Not Active: IC50 [1] | Ki [1] | IC50 [2] | Ki [2] | IC50 (Vasopressin V1a receptor) | IC50 (Cytochrome P450 1A2) | Ki (Cytochrome P450 1A2) | IC50 (Acetylcholinesterase) | IC50 (Estrogen receptor) | IC50 [3] | Ki [3] | IC50 [4] | Ki [4] | IC50 (Adenosine receptor A1)

C=C(C)C1(O)OC(=O)C=C1OC (configuration not stated) [PENICILLIC ACID]
Not Active: IC50 [1] | Ki [1] | IC50 [2] | Ki [2] | IC50 (Vasopressin V1a receptor) | IC50 (Cytochrome P450 1A2) | Ki (Cytochrome P450 1A2) | IC50 (Acetylcholinesterase) | IC50 (Estrogen receptor) | IC50 [3] | Ki [3] | IC50 [4] | Ki [4] | IC50 (Adenosine receptor A1)

CCCN1C[C@H](CSC)C[C@@H]2c3cccc4[nH]cc(c34)C[C@H]21 [PERGOLIDE]
Not Active: IC50 [1] | Ki [1] | IC50 [2] | Ki [2] | IC50 (Vasopressin V1a receptor) | IC50 (Cytochrome P450 1A2) | Ki (Cytochrome P450 1A2) | IC50 (Acetylcholinesterase) | IC50 (Estrogen receptor) | IC50 [3] | Ki [3] | IC50 [4] | Ki [4] | IC50 (Adenosine receptor A1)

C1CCC(C(CC2CCCCN2)C2CCCCC2)CC1 (configuration not stated) [PERHEXILINE]
Not Active: IC50 [1] | Ki [1] | IC50 [2] | Ki [2] | IC50 (Vasopressin V1a receptor) | IC50 (Cytochrome P450 1A2) | Ki (Cytochrome P450 1A2) | IC50 (Acetylcholinesterase) | IC50 (Estrogen receptor) | IC50 [3] | Ki [3] | IC50 [4] | Ki [4] | IC50 (Adenosine receptor A1)

CCOc1ccc(NC(C)=O)cc1 [PHENACETIN]
Not Active: IC50 [1] | Ki [1] | IC50 [2] | Ki [2] | IC50 (Vasopressin V1a receptor) | IC50 (Cytochrome P450 1A2) | Ki (Cytochrome P450 1A2) | IC50 (Acetylcholinesterase) | IC50 (Estrogen receptor) | IC50 [3] | Ki [3] | IC50 [4] | Ki [4] | IC50 (Adenosine receptor A1)

Cc1ccc(N(CC2=NCCN2)c2cccc(O)c2)cc1 [PHENTOLAMINE]
Not Active: IC50 [1] | Ki [1] | IC50 [2] | Ki [2] | IC50 (Vasopressin V1a receptor) | IC50 (Cytochrome P450 1A2) | Ki (Cytochrome P450 1A2) | IC50 (Acetylcholinesterase) | IC50 (Estrogen receptor) | IC50 [3] | Ki [3] | IC50 [4] | Ki [4] | IC50 (Adenosine receptor A1)

CC(O)CO (configuration not stated) [PROPYLENE GLYCOL]
Not Active: IC50 [1] | Ki [1] | IC50 [2] | Ki [2] | IC50 (Vasopressin V1a receptor) | IC50 (Cytochrome P450 1A2) | Ki (Cytochrome P450 1A2) | IC50 (Acetylcholinesterase) | IC50 (Estrogen receptor) | IC50 [3] | Ki [3] | IC50 [4] | Ki [4] | IC50 (Adenosine receptor A1)

CADMIUM ACETATE
Not Active: IC50 [1] | Ki [1] | IC50 [2] | Ki [2] | IC50 (Vasopressin V1a receptor) | Ki (Vasopressin V1a receptor) | IC50 (Cytochrome P450 1A2) | Ki (Cytochrome P450 1A2) | IC50 (Acetylcholinesterase) | Ki (Acetylcholinesterase) | IC50 (Estrogen receptor) | Ki (Estrogen receptor) | IC50 [3] | Ki [3] | IC50 [4] | Ki [4] | IC50 (Adenosine receptor A1) | Ki (Adenosine receptor A1)

LEAD (II) ACETATE
Not Active: IC50 [1] | Ki [1] | IC50 [2] | Ki [2] | IC50 (Vasopressin V1a receptor) | Ki (Vasopressin V1a receptor) | IC50 (Cytochrome P450 1A2) | Ki (Cytochrome P450 1A2) | IC50 (Acetylcholinesterase) | Ki (Acetylcholinesterase) | IC50 (Estrogen receptor) | Ki (Estrogen receptor) | IC50 [3] | Ki [3] | IC50 [4] | Ki [4] | IC50 (Adenosine receptor A1) | Ki (Adenosine receptor A1)

LIPOPOLYSACCHARIDE E. COLI O55:B5
Not Active: IC50 [1] | Ki [1] | IC50 [2] | Ki [2] | IC50 (Vasopressin V1a receptor) | Ki (Vasopressin V1a receptor) | IC50 (Cytochrome P450 1A2) | Ki (Cytochrome P450 1A2) | IC50 (Acetylcholinesterase) | Ki (Acetylcholinesterase) | IC50 (Estrogen receptor) | Ki (Estrogen receptor) | IC50 [3] | Ki [3] | IC50 [4] | Ki [4] | IC50 (Adenosine receptor A1) | Ki (Adenosine receptor A1)

Source: ChEMBL document CHEMBL1909046, “DrugMatrix in vitro pharmacology data”
